Laboratory results taken from PMC3709815, “Reconstructing a Flavodoxin Oxidoreductase with Early Amino Acids” (International Journal of Molecular Sciences, 2013).

Legend:
Type in all cases: binding
[1] = target: T1, Megasphaera elsdenii flavodoxin (apoflavodoxin) (Megasphaera elsdenii, UniProt P00321, C127V/C54A/F36V/F70L/F71L/F86V/M120V/M16L/M57V/M97L/W100V/W7V/W91V/W96V/Y6V/Y89V); assay: fluorescence titration of FMN with apoflavodoxin (ex […] nm, em […] nm); conditions: read-out: Kd,ox
T1 construct: synthetic gene in pET28b(+) NdeI/BamHI, 6xHis tag kept, E. coli BL21(DE3); apoprotein by trichloroacetic acid

[2] = target: T2, Megasphaera elsdenii flavodoxin (apoflavodoxin) (Megasphaera elsdenii, UniProt P00321); assay: far-UV circular dichroism of apo- and holoflavodoxin, reconstitution with FMN; conditions: oxidized state; holoprotein reconstituted with 1.0 mM FMN, 40 mM sodium phosphate pH 7.0
T2 construct: synthetic gene in pET28b(+) NdeI/BamHI, 6xHis tag kept, E. coli BL21(DE3); apoprotein by trichloroacetic acid

[3] = target: T1, Megasphaera elsdenii flavodoxin (apoflavodoxin); assay: calculated from Kd,ox and redox potential Em, […] (anaerobic dithionite titration with redox dyes); conditions: read-out: Kd,hq

T1 sequence (P00321 other isoform, or with tags, fused parts or gaps with the stated changes): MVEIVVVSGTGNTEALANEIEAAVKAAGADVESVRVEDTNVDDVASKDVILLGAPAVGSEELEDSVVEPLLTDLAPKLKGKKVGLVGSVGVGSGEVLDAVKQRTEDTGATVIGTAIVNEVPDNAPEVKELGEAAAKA
T2 sequence (P00321 whole entry): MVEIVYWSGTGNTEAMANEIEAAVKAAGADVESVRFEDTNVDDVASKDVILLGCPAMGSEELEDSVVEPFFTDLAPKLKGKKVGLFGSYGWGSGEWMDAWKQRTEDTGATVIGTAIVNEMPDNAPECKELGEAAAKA

Cc1cc2nc3c(=O)[nH]c(=O)nc-3n(C[C@H](O)[C@H](O)[C@H](O)COP(=O)(O)O)c2cc1C [FMN]
Kd [1]: 0.00292 mM | far-UV circular dichroism of apo- and holoflavodoxin, reconstitution with FMN [2]: conformation transition of mutant and wild-type protein induced by FMN binding is different

Cc1cc2c(cc1C)N(C[C@H](O)[C@H](O)[C@H](O)COP(=O)(O)O)c1[nH]c(=O)[nH]c(=O)c1N2 [FMNhq]
Kd [3]: 43.6 mM
